Laboratory results published in US3932664A, “Substituted phenoxyalkyl quaternary ammonium compounds as antiarrhythemic agents” (priority 1974, dated 1976).
Like-named read-outs stand apart in the source and are kept apart here.

Experiments:
[1] = test system: ouabain-induced ventricular tachycardia in dogs; assay: conversion of ouabain-induced ventricular tachycardia to normal sinus rhythm in anesthetized dogs; assay type: in vivo, dog; details: for minimal effective dose: Canis lupus familiaris, iv, read-out: Conversion Dose
Excerpt: Ventricular tachycardia is produced in dogs in a method similar to the method of Lucchesi and Hardman (J. Pharmacol. Exptl. Therap., 132, 372, 1961) by the administration of ouabain. In such operations, a dog is anesthetized by the intravenous administration of pentobarbital sodium at a dosage rate of 30 milligrams per kilogram. A femoral artery is cannulated with polyethylene tubing for measurements of blood pressure. A femoral vein is similarly cannulated for administration of ouabain and administration of the test compound. Hypodermic needle electrodes are employed for recording electrocardiograms. In such operations, ouabain is administered intravenously by infusion at a constant rate via the cannulated femoral vein. The infusion rate is 35 micrograms of ouabain per kilogram of animal body weight per hour. Within 1 to 1.5 hours following the start of the infusion, a ventricular tachycardia is seen to develop.
After ventricular tachycardia is observed, a test compound is administered intravenously by administration of varying amounts of a composition comprising 50 milligrams of the test compound as a sterile solution in 10 milliliters of water containing 0.9 percent sodium chloride. Each dose is administered slowly over a period of 15 to 30 seconds. The compound is administered at an initial dosage rate of 0.25 milligram of test compound per kilogram of animal body weight. Blood pressure and electrocardiogram are observed for 5 minutes after administration. When a complete conversion from the arrhythmic condition to normal sinus rhythm is not observed within the 5 minute period, a second dose of 0.50 milligram of the test compound per kilogram is administered by a similar procedure and blood pressure and heartbeat are similarly observed for 5 minutes. When complete conversion of the ventricular tachycardia to normal sinus rhythm is not observed, the dosage is increased two-fold every five minutes until complete conversion is obtained. The animal is then observed and the duration of the period of normal cardiac rhythm produced by administration of the test compound is recorded as the duration of antiarrhythmic activity. The termination of the period of normal activity is marked by the reappearance of ventricular tachycardia or fibrillation as indicated by the electrocardiogram observations. The antiarrhythmic dosage of test compound sufficient to bring about a complete conversion of the cuabain-induced tachycardia, and the duration of the period of normal cardiac activity are set out below.
The procedure of Example 26 is repeated, employing the compound of Example 1, [ 2-(4-amino-2,6-dibromophenoxy)-ethyl]-dimethyl(2-methylallyl)ammoniumchloride, as a test compound. In these operations two groups of three dogs each are administered the test compound intravenously at anti-arrhythmic dosage rates of 1 and 2 milligrams per kilogram after ectopic ventricular rhythms have been established by continuous infusion of cuabain.

[2] = blood and heart tissue levels in mice after intravenous and oral administration; assay type: in vivo; details: mouse; for concentration at 0.5 h: oral 6 mg/kg, thirty minutes after administration
Experimental: [2-(4-amino-2,6-dibromophenoxy)ethyl]dimethyl-(allyl)ammonium bromide is administered to mice intravenously and orally. The animals are thereafter sacrificed and blood and heart tissue analyses are carried out to ascertain the concentration of test compound present. In such operations mice intravenously administered the test compound at a rate of 6 milligrams per kilogram are found to have blood levels of 27 micrograms of test compound per milliliter 10 seconds after injection, 2.1 micrograms per milliliter 3 minutes after injection. Analysis of heart tissue indicates a concentration of 5.5 micrograms of test compound per gram of tissue 10 minutes after injection. Similar analyses are carried out with animals administered 6 milligrams of test compound per kilogram orally. Thirty minutes after oral administration, blood and heart levels of 1.1 and 5.1 micrograms, respectively, of test compound per milliliter of blood or gram of heart tissue, respectively, are found.

[3] = dog, intravenous, dose giving complete conversion of ouabain-induced tachycardia to normal sinus rhythm
[4] = dog, intravenous, at conversion dose 2 mg/kg
[5] = dog, intravenous, at conversion dose 1 mg/kg
[6] = dog, intravenous, at conversion dose 0.5 mg/kg

Structure (SMILES)	minimal effective dose [1, 3] [mg/kg]	Duration (period of normal cardiac rhythm) [1, 5] [min]	also measured
C=CC[N+](CC)(CC)CCOc1c(Br)cc(N)cc1Br.[Br-] [Example 16, [2-(4-amino-2,6-dibromophenoxy)ethyl]diethyl(allyl)ammonium bromide]	2	–	Duration (period of normal cardiac rhythm) [1, 4]: 6.5 min
C[N+](C)(CC#N)CCOc1c(Br)cc(N)cc1Br.O=S(=O)([O-])c1ccccc1 [Example 18, [2-(4-amino-2,6-dibromophenoxy)ethyl]dimethyl(2-nitriloethyl)-ammonium benzenesulfonate]	–	4	minimal effective dose [1]: 1 mg/kg
C#CC[N+](C)(C)CCOc1c(Br)cc(N)cc1Br.[Br-] [Example 4, [2-(4-amino-2,6-dibromo-phenoxy)ethyl]dimethyl(2-propynyl)ammonium bromide]	0.5	–	Duration (period of normal cardiac rhythm) [1, 6]: 24 min
C=CC[N+](C)(C)CCCOc1c(Br)cc(N)cc1Br.[Br-] [Example 17, [3-(4-amino-2,6-dibromophenoxy)propyl]dimethyl(allyl)ammonium bromide]	1	6	–
CC(=O)C[N+](C)(C)CCOc1c(Br)cc(N)cc1Br.[Cl-] [Example 5, [2-(4-amino-2,6-dibromophenoxy)ethyl]dimethyl(acetonyl)ammonium chloride]	1	11	–
C[N+](C)(CCOc1c(Br)cc(N)cc1Br)CCc1ccccc1 [Example 9]	2	–	Duration (period of normal cardiac rhythm) [1, 4]: 3.5 min
C[N+](C)(CCOc1c(Br)cc(N)cc1Br)Cc1ccc(Cl)cc1 [Example 12]	1	9.5	–
C[N+](C)(CCOc1c(Br)cc(N)cc1Br)Cc1ccccc1Cl.[Cl-] [Example 3, [2-(4-amino-2,6-dibromophenoxy)-ethyl]dimethyl(2-chlorobenzyl)ammonium chloride]	1	12.5	–
C[N+](C)(CCOc1c(Br)cc(N)cc1Br)Cc1ccc(Cl)cc1Cl [Example 13]	0.5	–	Duration (period of normal cardiac rhythm) [1, 6]: 4 min
C[N+](C)(CCOc1c(Br)cc(N)cc1Br)Cc1ccc(Cl)c(Cl)c1 [Example 14]	2	–	Duration (period of normal cardiac rhythm) [1, 4]: 14 min
C[N+](C)(CCO)CCOc1c(Br)cc(N)cc1Br [Example 7]	1	25	–
C=C(C)C[N+](C)(C)CCOc1c(Cl)cc(N)cc1Cl.[Cl-] [Example 15, [2-(4-amino-2,6-dichlorophenoxy)ethyl]dimethyl(2-methylallyl)-ammonium chloride]	0.5	–	Duration (period of normal cardiac rhythm) [1, 6]: 4.5 min
C=CC[N+](C)(C)CCCCOc1c(Br)cc(N)cc1Br.[Br-] [Example 25, [4-(4-amino-2,6-dibromophenoxy)-butyl]dimethyl(allyl) ammonium bromide]	2	–	Duration (period of normal cardiac rhythm) [1, 4]: 26 min
C=CC[N+](C)(C)CCOc1c(Br)cc(N)cc1Br.CS(=O)(=O)[O-] [Example 19, [2-(4-amino-2,6-dibromophenoxy)-ethyl]dimethyl(allyl)ammonium methanesulfonate]	1	17.5	Duration (period of normal cardiac rhythm) [1, 4]: 39.0 min
C=CC[N+](C)(C)CCOc1c(Br)cc(N)cc1Br.[Br-] [Example 6, [2-(4-amino-2,6-dibromophenoxy)ethyl]dimethyl(allyl)ammonium bromide]	1	6	concentration at 10 s ([2]; blood, intravenous 6 mg/kg, 10 seconds after injection, read-out: blood level): 27000 ng/mL; concentration at 0.05 h ([2]; blood, intravenous 6 mg/kg, 3 minutes after injection, read-out: blood level): 2100 ng/mL; concentration at 0.5 h ([2]; blood, read-out: blood level): 1100 ng/mL; concentration at 10 min ([2]; heart, intravenous 6 mg/kg, 10 minutes after injection): 5500 ng/g; concentration at 0.5 h ([2]; heart, read-out: heart level): 5100 ng/g
Br.C=CC[N+]1(CCOc2c(Br)cc(N)cc2Br)CCCCC1.[Br-] [Example 22, 1-[2-(4-amino-2,6-dibromophenoxy)ethyl]-1-allyl piperidinium bromide hydrobromide]	1	6.5	–
C[N+](C)(CCOc1c(Br)cc(N)cc1Br)Cc1ccccc1 [Example 11]	1	8.5	–
C=CC[N+]1(CCOc2c(Br)cc(N)cc2Br)CCCCCC1 [Example 23, [2-(4-amino-2,6-dibromophenoxy)ethyl]-1-allylhexahydroazepinium bromide]	0.5	7.5	Duration (period of normal cardiac rhythm) [1, 6]: 3.3 min
CCOC(=O)C[N+](C)(C)CCOc1c(Br)cc(N)cc1Br [Example 2, [2-(4-amino-2,6-dibromophenoxy)ethyl]dimethyl(ethylcarboxymethyl) ammonium bromide]	1	2.6	Duration (period of normal cardiac rhythm) [1, 4]: 3.5 min
Br.C=CC[N+]1(CCOc2c(Br)cc(N)cc2Br)CCCC1.[Br-] [Example 21, 1-[2-(4-amino-2,6dibromophenoxy)ethyl]-1-allyl pyrrolidinium bromide hydrobromide]	2	–	Duration (period of normal cardiac rhythm) [1, 4]: 1.5 min
Nc1cc(Br)c(OCC[N+]23CCC(CC2)CC3)c(Br)c1 [Example 20, [2-(4-amino-2,6-dibromophenoxy)ethyl] quinuclidinium bromide]	–	–	minimal effective dose [1]: 0.5 mg/kg; Duration (period of normal cardiac rhythm) [1, 6]: 1 min
C[N+](C)(CC=CCl)CCOc1c(Br)cc(N)cc1Br [Example 10]	1	3	–
C[N+](C)(CCOc1c(Br)cc(N)cc1Br)CC(=O)c1ccc(Cl)c(Cl)c1 [Example 8]	16	–	Duration (period of normal cardiac rhythm) ([1]; dog, intravenous, at conversion dose 16 mg/kg): 10 min
Cc1ccc[n+](CCOc2c(Br)cc(N)cc2Br)c1.[Br-] [Example 24, 1-[2-(4-amino-2,6-dibromo-phenoxy)ethyl]-3-picolinium bromide]	0.5	–	Duration (period of normal cardiac rhythm) [1, 6]: 38 min
